Test results: patent publication US4401660A, “Ester derivatives of 5-O-mycaminosyl tylonolide and method of using same” (Eli Lilly and Company, priority 1981, dated 1983)

Tests used:
[1] = system: Haemophilus influenzae Holt; test: MIC, standard agar-dilution assay (Table II); type: cell-based; design: unit not given here; conditions: ampicillin-sensitive strain
Procedure: (§1) The MIC's in Table II were determined by standard agar-dilution assays. The MIC's in Table III were obtained using a conventional broth-dilution microtiter test.

[2] = system: Haemophilus influenzae R252; test: MIC, standard agar-dilution assay (Table II); type: cell-based; design: unit not given here; conditions: Haemophilus influenzae R252, ampicillin-resistant strain
Procedure: as §1

[3] = system: Staphylococcus aureus S13E; test: MIC, standard agar-dilution assay (Table II); type: cell-based; design: unit not given here
Procedure: as §1

[4] = system: Staphylococcus aureus V41; test: MIC, standard agar-dilution assay (Table II); type: cell-based; design: unit not given here; conditions: Staphylococcus aureus V41, penicillin-resistant strain
Procedure: as §1

[5] = system: Staphylococcus aureus X1.1; test: MIC, standard agar-dilution assay (Table II); type: cell-based; design: unit not given here
Procedure: as §1

[6] = system: Staphylococcus aureus X400; test: MIC, standard agar-dilution assay (Table II); type: cell-based; design: unit not given here; conditions: Staphylococcus aureus X400, methicillin-resistant strain
Procedure: as §1

[7] = system: Staphylococcus epidermidis EPI1; test: MIC, standard agar-dilution assay (Table II); type: cell-based; design: unit not given here
Procedure: as §1

[8] = system: Staphylococcus epidermidis EPI2; test: MIC, standard agar-dilution assay (Table II); type: cell-based; design: unit not given here
Procedure: as §1

[9] = system: Streptococcus Group D 9960; test: MIC, standard agar-dilution assay (Table II); type: cell-based; design: unit not given here
Procedure: as §1

[10] = system: Streptococcus Group D X66; test: MIC, standard agar-dilution assay (Table II); type: cell-based; design: unit not given here
Procedure: as §1

[11] = system: Streptococcus pneumoniae Park I; test: MIC, standard agar-dilution assay (Table II); type: cell-based; design: unit not given here
Procedure: as §1

[12] = system: Streptococcus pyogenes C203; test: MIC, standard agar-dilution assay (Table II); type: cell-based; design: unit not given here
Procedure: as §1

Mycoplasma gallisepticum = test: MIC, broth-dilution microtiter test (Table III); type: cell-based; design: unit not given here
Procedure: as §1

Mycoplasma hyorhinis = test: MIC, broth-dilution microtiter test (Table III); type: cell-based; design: unit not given here
Procedure: as §1

[13] = system: Pasteurella haemolytica 22C; test: MIC, broth-dilution microtiter test (Table III); type: cell-based; design: unit not given here
Procedure: as §1

[14] = system: Pasteurella haemolytica 23C; test: MIC, broth-dilution microtiter test (Table III); type: cell-based; design: unit not given here
Procedure: as §1

[15] = system: Pasteurella haemolytica 41D; test: MIC, broth-dilution microtiter test (Table III); type: cell-based; design: unit not given here
Procedure: as §1

[16] = system: Pasteurella multocida 17E; test: MIC, broth-dilution microtiter test (Table III); type: cell-based; design: unit not given here; conditions: bovine isolate
Procedure: as §1

[17] = system: Pasteurella multocida 22A; test: MIC, broth-dilution microtiter test (Table III); type: cell-based; design: unit not given here
Procedure: as §1

[18] = system: Pasteurella multocida 40G; test: MIC, broth-dilution microtiter test (Table III); type: cell-based; design: unit not given here
Procedure: as §1

[19] = system: Pasteurella multocida 60A; test: MIC, broth-dilution microtiter test (Table III); type: cell-based; design: unit not given here; conditions: avian isolate
Procedure: as §1

[20] = system: Pasteurella multocida 68C; test: MIC, broth-dilution microtiter test (Table III); type: cell-based; design: unit not given here
Procedure: as §1

Staphylococcus aureus = test: MIC, broth-dilution microtiter test (Table III); type: cell-based; design: unit not given here
Procedure: as §1

Streptococcus sp. 80 = test: MIC, broth-dilution microtiter test (Table III); type: cell-based; design: unit not given here
Procedure: as §1

Pasteurella multocida = test: Treatment of Pasteurella infections in chicks (Table V); type: in vivo, one-day-old chicks; conditions: 30 mg/kg by subcutaneous injection one and four hours post challenge; for mortality at 30 mg/kg: Pasteurella multocida, sc, 4 h, read-out: Deaths in Treated Chicks/Number Treated (converted)
How it was run: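 Dosing was 30 mg/kg by subcutaneous injection, one and four hours after challenge. Day-old chicks received 0.1 ml of a 10^-3 dilution of a 20-hour tryptose broth culture of avian P. multocida subcutaneously. Nonmedicated infected chicks served as controls, ten per group.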

Mycoplasma synoviae = test: MIC, broth-dilution microtiter test (Table III); type: cell-based; design: unit not given here
Procedure: as §1

Row | Compound | minimal inhibitory concentration (MIC) [1] | minimal inhibitory concentration (MIC) [2] | minimal inhibitory concentration (MIC) [3] | minimal inhibitory concentration (MIC) [4] | minimal inhibitory concentration (MIC) [5] | minimal inhibitory concentration (MIC) [6] | minimal inhibitory concentration (MIC) [7] | minimal inhibitory concentration (MIC) [8] | minimal inhibitory concentration (MIC) [9] | minimal inhibitory concentration (MIC) [10] | minimal inhibitory concentration (MIC) [11] | minimal inhibitory concentration (MIC) [12] | minimal inhibitory concentration (MIC) (Mycoplasma gallisepticum) | minimal inhibitory concentration (MIC) (Mycoplasma hyorhinis) | minimal inhibitory concentration (MIC) [13] | minimal inhibitory concentration (MIC) [14] | minimal inhibitory concentration (MIC) [15] | minimal inhibitory concentration (MIC) [16] | minimal inhibitory concentration (MIC) [17] | minimal inhibitory concentration (MIC) [18] | also measured
1 | CCC1OC(=O)CC(O)C(C)C(OC2OC(C)C(OC(C)=O)C(N(C)C)C2OC(C)=O)C(CC=O)CC(C)C(=O)C=CC(C)=CC1COC(=O)COc1ccccc1 (stereo not shown) [Compound 34, 2',4'-Di-O-acetyl-23-O-phenoxyacetyl-OMT] | 1 | 1 | 0.25 | 0.25 | 0.25 | 0.25 | 0.25 | 0.5 | 0.25 | 0.25 | 0.015 | 0.06 | < 0.05 | 3.12 | 3.12 | 3.12 | 3.12 | 1.56 | 3.12 | 1.56 | minimal inhibitory concentration (MIC) [19]: 1.56; minimal inhibitory concentration (MIC) [20]: 1.56; minimal inhibitory concentration (MIC) (Staphylococcus aureus): 0.097; minimal inhibitory concentration (MIC) (Streptococcus sp. 80): < 0.05; mortality at 30 mg/kg (Pasteurella multocida): 90%
2 | CCC1OC(=O)CC(O)C(C)C(OC2OC(C)C(O)C(N(C)C)C2OC(C)=O)C(CC=O)CC(C)C(=O)C=CC(C)=CC1COC(=O)NCc1ccccc1 (stereo not shown) [Compound 75] | 0.5 | 1 | 0.125 | 0.25 | 0.125 | 0.25 | 0.125 | 0.125 | 0.125 | 0.25 | 0.03 | 0.125 | 0.048 | 0.78 | 6.25 | 3.12 | 6.25 | 6.25 | > 50 | 12.5 | minimal inhibitory concentration (MIC) (Mycoplasma synoviae): < 0.048; minimal inhibitory concentration (MIC) [19]: 6.25; minimal inhibitory concentration (MIC) [20]: 3.12; minimal inhibitory concentration (MIC) (Staphylococcus aureus): 0.78; minimal inhibitory concentration (MIC) (Streptococcus sp. 80): 0.39; mortality at 30 mg/kg (Pasteurella multocida): 100%
3 | CCC1OC(=O)CC(O)C(C)C(OC2OC(C)C(O)C(N(C)C)C2OC(C)=O)C(CC=O)CC(C)C(=O)C=CC(C)=CC1COC(=O)CCc1ccccc1 (stereo not shown) [Compound 30] | 0.5 | 0.5 | 0.25 | 0.25 | 0.125 | 0.25 | 0.25 | 0.25 | 0.125 | 0.125 | 0.015 | 0.06 | < 0.05 | 0.195 | 3.12 | 3.12 | 3.12 | 1.56 | 1.56 | 0.78 | minimal inhibitory concentration (MIC) [19]: 1.56; minimal inhibitory concentration (MIC) [20]: 0.78; minimal inhibitory concentration (MIC) (Staphylococcus aureus): 0.195; minimal inhibitory concentration (MIC) (Streptococcus sp. 80): < 0.05; Deaths in Treated Chicks/Number Treated (Pasteurella multocida): 6/10
